Columns and labels:
[1] = test system: CTV-1 (T-Lymphoblastic Leukemia); experiment: Bliss excess, mean over the matrix (fraction); higher = more synergy
In short: (§1)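 Cell lines grown in DMEM/F12 or RPMI with 10% FBS were plated in 1536-well plates and held 24 hours at 37°C, 5% CO2 before 72 hours of exposure to two-drug dose matrices, with DMSO typically at 0.2%. CellTiter-Glo 2.0 luminescence gave viability, which was converted to inhibition. Vehicle wells were set to 0 and blank wells to 1. Combination Emax is the second-highest inhibition in the matrix, and Bliss excess is the observed combination effect minus the expected EA + EB − EA·EB, where EA and EB are the single-agent effects.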

[2] = test system: G-292-Clone-A141B1 (Osteosarcoma); experiment: as above
In short: as §1

[3] = test system: IHH-4 (Thyroid Gland Carcinoma); experiment: as above
In short: as §1

[4] = test system: J82 (Bladder Carcinoma); experiment: as above
In short: as §1

[5] = test system: JiyoyeP-2003 (Burkitt's Lymphoma); experiment: as above
In short: as §1

[6] = test system: KARPAS-620 (Plasma Cell Myeloma); experiment: as above
In short: as §1

[7] = test system: KATOIII (Gastric Carcinoma); experiment: as above
In short: as §1

[8] = test system: MFH-ino (Other Solid Carcinomas); experiment: as above
In short: as §1

[9] = test system: NCI-H1299 (Non-Small Cell Lung Carcinoma); experiment: as above
In short: as §1

[10] = test system: RH-1 (Ewing's Sarcoma); experiment: as above
In short: as §1

[11] = test system: U-266 (Plasma Cell Myeloma); experiment: as above
In short: as §1

[12] = test system: 697 (B-Lymphoblastic Leukemia); experiment: combination Emax (second highest fraction inhibited in the dose matrix, 72 h); higher = more inhibition; extreme values may be limits of the assay
In short: as §1

[13] = test system: CAL-78 (Chondrosarcoma); experiment: as above
In short: as §1

[14] = test system: ES7 (Ewing's Sarcoma); experiment: as above
In short: as §1

[15] = test system: J82 (Bladder Carcinoma); experiment: as above
In short: as §1

[16] = test system: LS-513 (Colorectal Carcinoma); experiment: as above
In short: as §1

[17] = test system: NCI-H1299 (Non-Small Cell Lung Carcinoma); experiment: as above
In short: as §1

[18] = test system: NCI-H1793 (Lung Adenocarcinoma); experiment: as above
In short: as §1

[19] = test system: SW1088 (Low Grade Glioma); experiment: as above
In short: as §1

[20] = test system: SW1990 (Pancreatic Carcinoma); experiment: as above
In short: as §1
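For Bliss excess, mean over the matrix in this document: after 72 h of two-drug dosing.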

Compound	Bliss excess [1]	Bliss excess [2]	Bliss excess [3]	Bliss excess [4]	Bliss excess [5]	Bliss excess [6]	Bliss excess [7]	Bliss excess [8]	Bliss excess [9]	Bliss excess [10]	Bliss excess [11]	combination Emax [12]	combination Emax [13]	combination Emax [14]	combination Emax [15]	combination Emax [16]	combination Emax [17]	combination Emax [18]	combination Emax [19]	combination Emax [20]
CC1(C)CCC(CN2CCN(c3ccc(C(=O)NS(=O)(=O)c4ccc(NCC5CCOCC5)c([N+](=O)[O-])c4)c(Oc4cnc5[nH]ccc5c4)c3)CC2)=C(c2ccc(Cl)cc2)C1 [Venetoclax] + CN(C)CCCOc1ccc(-c2ccc3ncc4c(c3c2)n(C2CCOCC2)c(=O)n4C)cn1 [AZD0156] (first compound max 1 µM, 7x7, partner max 1 µM)	-0.0103	-0.0367	-0.0153	0.0014	-0.0128	0.04	-0.0156	-0.0403	-0.004	-0.0098	0.0264	0.988	0.248	0.925	0.186	0.316	0.214	0.248	0.238	0.674
Cn1cnc2c(F)c(Nc3ccc(Br)cc3Cl)c(C(=O)NOCCO)cc21 [Selumetinib] + C=CCn1c(=O)c2cnc(Nc3ccc(N4CCN(C)CC4)cc3)nc2n1-c1cccc(C(C)(C)O)n1 [AZD1775] (first compound max 10 µM, partner max 1 µM)	0.0039	-0.0458	-0.0083	-0.0614	-0.0563	0.0719	0.0186	-0.0316	-0.02	-0.0491	0.0598	1	0.544	0.486	0.299	0.904	0.652	0.423	0.55	0.431
CC1(C)CCC(CN2CCN(c3ccc(C(=O)NS(=O)(=O)c4ccc(NCC5CCOCC5)c([N+](=O)[O-])c4)c(Oc4cnc5[nH]ccc5c4)c3)CC2)=C(c2ccc(Cl)cc2)C1 [Venetoclax] + C[C@@H](Nc1cc(F)cc(F)c1)c1cc(C(=O)N(C)C)cc2c(=O)cc(N3CCOCC3)oc12 [AZD8186] (first compound max 1 µM, 7x7, partner max 3 µM)	0.0057	-0.0195	0.0138	-0.0213	0.0246	-0.0022	-0.0555	-0.053	-0.0492	-0.0429	0.0357	0.986	0.212	0.904	0.14	0.491	0.149	0.221	0.493	0.452
Cc1cc2ncnn2cc1Nc1ncc2c(n1)n(C1CCOCC1)c(=O)n2C [AZD7648] + C[C@@H]1COCCN1C2=NC(=NC(=C2)C3(CC3)[S@](=N)(=O)C)C4=C5C=CNC5=NC=C4 [AZD6738] (first compound max 10 µM, 7x7, partner max 10 µM)	-0.0024	0.0274	0.0366	-0.0122	0.0127	-0.0283	-0.064	-0.0002	0.0116	-0.0016	-0.0168	1	0.469	0.766	0.31	0.762	0.644	0.36	0.671	0.471
COc1nnc2ccc(N3CCC(c4ccc(OCCN5CCN(C)C(=O)[C@H]5C)cc4)CC3)nn12 [AZD5153] + C[C@@H]1COCCN1C2=NC(=NC(=C2)C3(CC3)[S@](=N)(=O)C)C4=C5C=CNC5=NC=C4 [AZD6738] (first compound max 1 µM, 7x7, partner max 10 µM)	0.0194	0.0166	-0.0118	0.104	-0.047	-0.0429	-0.0164	-0.0801	-0.0088	0.0071	-0.079	1	0.515	0.952	0.604	0.755	0.794	0.629	0.645	0.497
CCN(CCO)CCCOc1ccc2c(Nc3cc(CC(=O)Nc4cccc(F)c4)[nH]n3)ncnc2c1 [AZD2811] + C[C@@H]1COCCN1C2=NC(=NC(=C2)C3(CC3)[S@](=N)(=O)C)C4=C5C=CNC5=NC=C4 [AZD6738] (first compound max 1 µM, 7x7, partner max 10 µM)	0.0009	-0.12	-0.0583	-0.0259	0.0773	-0.0121	-0.0477	-0.0878	-0.0808	-0.0414	-0.0532	1	0.534	0.865	0.184	0.746	0.642	0.327	0.566	0.513
Cc1cc2ncnn2cc1Nc1ncc2c(n1)n(C1CCOCC1)c(=O)n2C [AZD7648] + CN(C)CCCOc1ccc(-c2ccc3ncc4c(c3c2)n(C2CCOCC2)c(=O)n4C)cn1 [AZD0156] (first compound max 10 µM, 7x7, partner max 1 µM)	0.0449	-0.0261	0.0352	-0.0131	-0.0067	-0.0373	-0.0204	-0.0299	0.0177	0.0087	0.018	0.486	0.173	0.433	0.104	0.247	0.352	0.333	0.419	0.212
Cc1c2c(nn1C)CSCc1cc(n(C)n1)CSc1cc(c3ccccc3c1)OCCCc1c(C(=O)O)n(C)c3c-2c(Cl)ccc13 [AZD5991] + Cn1cnc2c(F)c(Nc3ccc(Br)cc3Cl)c(C(=O)NOCCO)cc21 [Selumetinib] (first compound max 1 µM, 7x7, partner max 3 µM)	0.036	-0.0558	-0.026	-0.0073	0.0039	0.0919	-0.0085	-0.0311	-0.0039	-0.0127	0.0068	1	0.717	0.759	0.197	0.796	0.3	0.244	0.229	0.41
Cn1cnc2c(F)c(Nc3ccc(Br)cc3Cl)c(C(=O)NOCCO)cc21 [Selumetinib] + C[C@@H]1COCCN1C2=NC(=NC(=C2)C3(CC3)[S@](=N)(=O)C)C4=C5C=CNC5=NC=C4 [AZD6738] (first compound max 10 µM, 7x7, partner max 10 µM)	-0.001	-0.0303	0.0224	0.0262	-0.0145	0.0471	-0.0433	0.0029	0.0454	-0.0215	-0.0303	1	0.42	0.777	0.482	0.897	0.543	0.524	0.65	0.502
C=CCn1c(=O)c2cnc(Nc3ccc(N4CCN(C)CC4)cc3)nc2n1-c1cccc(C(C)(C)O)n1 [AZD1775] + C[C@@H]1COCCN1C2=NC(=NC(=C2)C3(CC3)[S@](=N)(=O)C)C4=C5C=CNC5=NC=C4 [AZD6738] (first compound max 1 µM, partner max 10 µM)	0.0737	-0.0665	0.0534	0.0305	0.046	0.0335	-0.0139	-0.0909	-0.0268	0.0329	0.0235	1	0.839	0.903	0.414	0.87	0.889	0.548	0.684	0.623
COc1cccc2c1C(=O)c1c(O)c3c(c(O)c1C2=O)C[C@@](O)(C(=O)CO)C[C@@H]3O[C@H]1C[C@H](N)[C@H](O)[C@H](C)O1 [Doxorubicin] + Cc1cc2ncnn2cc1Nc1ncc2c(n1)n(C1CCOCC1)c(=O)n2C [AZD7648] (first compound max 1 µM, 7x7, partner max 10 µM)	0.119	-0.0023	0.109	0.0106	0.094	-0.0381	-0.0354	0.0216	0.0329	0.163	0.115	1	0.542	1	0.41	0.617	0.66	0.378	0.477	0.303
CC1(C)CCC(CN2CCN(c3ccc(C(=O)NS(=O)(=O)c4ccc(NCC5CCOCC5)c([N+](=O)[O-])c4)c(Oc4cnc5[nH]ccc5c4)c3)CC2)=C(c2ccc(Cl)cc2)C1 [Venetoclax] + Cc1cc2ncnn2cc1Nc1ncc2c(n1)n(C1CCOCC1)c(=O)n2C [AZD7648] (first compound max 1 µM, 7x7, partner max 10 µM)	-0.0249	-0.037	-0.027	-0.0202	-0.0604	0.0454	-0.0076	-0.0328	-0.0352	0.0029	0.0148	0.983	0.234	0.714	0.131	0.192	0.224	0.41	0.341	0.572
CC1(C)CCC(CN2CCN(c3ccc(C(=O)NS(=O)(=O)c4ccc(NCC5CCOCC5)c([N+](=O)[O-])c4)c(Oc4cnc5[nH]ccc5c4)c3)CC2)=C(c2ccc(Cl)cc2)C1 [Venetoclax] + Cn1cnc2c(F)c(Nc3ccc(Br)cc3Cl)c(C(=O)NOCCO)cc21 [Selumetinib] (first compound max 1 µM, 7x7, partner max 3 µM)	-0.0173	-0.0441	-0.0176	-0.028	0.0014	0.16	-0.0235	-0.0288	-0.0424	-0.0291	0.0137	1	0.146	0.7	0.122	0.717	0.202	0.199	0.146	0.49
